Measured values taken from ChEMBL document CHEMBL5214927, “Recent advance on carbamate-based cholinesterase inhibitors as potential multifunctional agents against Alzheimer's disease” (Eur J Med Chem, 2022).
pIC50, pKi: −log10 of the molar value.

What was measured:
[1] = target: T1, Cholinesterase (Homo sapiens, UniProt P06276); test: Inhibition of recombinant human serum BChE using butyrylthiocholine iodide as substrate preincubated for 20 mins followed by substrate addition measured after 5 mins by Ellman's method
[2] = target: T2, Acetylcholinesterase (Homo sapiens, UniProt P22303); test: Inhibition of recombinant human serum AChE using acetylthiocholine iodide as substrate preincubated for 20 mins followed by substrate addition measured after 5 mins by Ellman's method
[3] = target: T3, Cholinesterases; ACHE & BCHE (Homo sapiens) (UniProt P06276+P22303); test: Selectivity index, ratio of IC50 for recombinant human serum BChE to IC50 for recombinant human serum AChE; format: protein assay
[4] = target: T2, Acetylcholinesterase; test: Inhibition of AChE (unknown origin)
[5] = target: T3, Cholinesterases; ACHE & BCHE (Homo sapiens); test: Selectivity index, ratio of IC50 for AChE (unknown origin) to BChE (unknown origin); format: protein assay
[6] = target: T1, Cholinesterase; test: Inhibition of human BChE
[7] = target: T4, Amine oxidase [flavin-containing] A (Homo sapiens, UniProt P21397); test: Inhibition of MAO-A (unknown origin)
T4 sequence (P21397 whole entry): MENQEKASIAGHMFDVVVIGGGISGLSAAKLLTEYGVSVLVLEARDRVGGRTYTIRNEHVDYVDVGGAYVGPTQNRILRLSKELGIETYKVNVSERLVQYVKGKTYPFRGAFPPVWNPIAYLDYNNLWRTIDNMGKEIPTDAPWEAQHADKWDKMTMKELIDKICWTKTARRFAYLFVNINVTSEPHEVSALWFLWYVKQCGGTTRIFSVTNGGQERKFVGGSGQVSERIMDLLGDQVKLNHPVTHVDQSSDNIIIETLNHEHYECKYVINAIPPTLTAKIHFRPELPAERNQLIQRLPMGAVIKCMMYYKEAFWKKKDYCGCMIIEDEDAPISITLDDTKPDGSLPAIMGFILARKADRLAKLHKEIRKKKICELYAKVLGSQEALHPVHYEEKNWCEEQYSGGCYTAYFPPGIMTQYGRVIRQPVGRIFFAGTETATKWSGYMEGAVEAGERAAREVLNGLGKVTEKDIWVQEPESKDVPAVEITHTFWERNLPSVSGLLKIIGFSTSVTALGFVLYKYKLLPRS

[8] = target: T5, Amine oxidase [flavin-containing] B (Homo sapiens, UniProt P27338); test: Inhibition of MAO-B (unknown origin)
T5 sequence (P27338 whole entry): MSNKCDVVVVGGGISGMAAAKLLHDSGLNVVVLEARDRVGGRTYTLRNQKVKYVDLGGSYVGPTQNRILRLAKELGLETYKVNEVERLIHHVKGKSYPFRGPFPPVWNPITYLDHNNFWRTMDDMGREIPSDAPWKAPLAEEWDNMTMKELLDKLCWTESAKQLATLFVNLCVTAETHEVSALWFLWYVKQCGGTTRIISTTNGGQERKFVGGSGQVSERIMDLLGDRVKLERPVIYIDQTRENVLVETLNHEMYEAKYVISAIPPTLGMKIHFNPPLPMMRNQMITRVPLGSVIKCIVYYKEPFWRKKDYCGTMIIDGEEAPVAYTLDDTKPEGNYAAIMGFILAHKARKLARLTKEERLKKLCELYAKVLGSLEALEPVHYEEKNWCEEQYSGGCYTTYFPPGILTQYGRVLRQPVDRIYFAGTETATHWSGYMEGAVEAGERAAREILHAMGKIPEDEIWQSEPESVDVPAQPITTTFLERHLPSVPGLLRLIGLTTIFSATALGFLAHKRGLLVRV

[9] = target: T2, Acetylcholinesterase; test: Inhibition of recombinant human AChE
[10] = target: T1, Cholinesterase; test: Inhibition of BChE (unknown origin)
[11] = target: T1, Cholinesterase; test: Inhibition of human serum BChE using butyrylthiocholine as substrate by Ellman's method
[12] = target: T2, Acetylcholinesterase
Description: Inhibition of human erythrocyte AChE using acetylthiocholine iodide as substrate preincubated for 30 mins followed by substrate addition measured after 5 mins by Ellman's method

[13] = target: T6, Cholinesterase (Equus caballus, UniProt P81908); test: Inhibition of equine BChE using acetylthiocholine iodide as substrate preincubated for 10 mins followed by substrate addition by Ellman's method
[14] = target: T2, Acetylcholinesterase; test: Inhibition of human AChE
[15] = target: T3, Cholinesterases; ACHE & BCHE (Homo sapiens); test: Selectivity index, ratio of IC50 for human AChE to IC50 for human BChE; format: protein assay
[16] = target: T7, Acetylcholinesterase (Electrophorus electricus, UniProt O42275); test: Inhibition of electric eel AChE using acetylthiocholine iodide as substrate incubated for 30 mins by Ellman's method
[17] = target: T7, Acetylcholinesterase; test: Binding affinity to electric eel AChE assessed as inhibition constant using acetylthiocholine iodide as substrate incubated for 30 mins by Ellman's method
[18] = target: T8, Acetylcholinesterase (Rattus norvegicus, UniProt P37136); test: Inhibition of rat AChE
T8 sequence (P37136 whole entry): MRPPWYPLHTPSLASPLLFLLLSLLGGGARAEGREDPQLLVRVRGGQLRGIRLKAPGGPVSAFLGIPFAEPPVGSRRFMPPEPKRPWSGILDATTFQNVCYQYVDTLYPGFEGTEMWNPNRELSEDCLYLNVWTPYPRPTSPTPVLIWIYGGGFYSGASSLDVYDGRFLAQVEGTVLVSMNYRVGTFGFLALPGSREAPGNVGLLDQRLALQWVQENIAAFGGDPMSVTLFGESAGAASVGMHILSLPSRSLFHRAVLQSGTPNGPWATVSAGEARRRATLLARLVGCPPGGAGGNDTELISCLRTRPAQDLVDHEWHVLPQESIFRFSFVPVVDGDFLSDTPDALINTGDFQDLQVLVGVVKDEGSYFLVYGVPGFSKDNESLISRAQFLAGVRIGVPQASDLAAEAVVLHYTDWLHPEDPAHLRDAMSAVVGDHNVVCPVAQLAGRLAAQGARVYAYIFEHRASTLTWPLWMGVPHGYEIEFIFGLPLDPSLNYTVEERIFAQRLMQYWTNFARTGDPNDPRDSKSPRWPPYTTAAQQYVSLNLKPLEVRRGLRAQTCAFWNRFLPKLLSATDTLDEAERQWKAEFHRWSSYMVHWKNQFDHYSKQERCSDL

[19] = target: T7, Acetylcholinesterase; test: Inhibition of electric eel AChE
[20] = target: T6, Cholinesterase; test: Inhibition of equine BChE
[21] = Selectivity index, ratio of IC50 for electric eel AChE to IC50 for equine BChE

T7 sequence (O42275 whole entry): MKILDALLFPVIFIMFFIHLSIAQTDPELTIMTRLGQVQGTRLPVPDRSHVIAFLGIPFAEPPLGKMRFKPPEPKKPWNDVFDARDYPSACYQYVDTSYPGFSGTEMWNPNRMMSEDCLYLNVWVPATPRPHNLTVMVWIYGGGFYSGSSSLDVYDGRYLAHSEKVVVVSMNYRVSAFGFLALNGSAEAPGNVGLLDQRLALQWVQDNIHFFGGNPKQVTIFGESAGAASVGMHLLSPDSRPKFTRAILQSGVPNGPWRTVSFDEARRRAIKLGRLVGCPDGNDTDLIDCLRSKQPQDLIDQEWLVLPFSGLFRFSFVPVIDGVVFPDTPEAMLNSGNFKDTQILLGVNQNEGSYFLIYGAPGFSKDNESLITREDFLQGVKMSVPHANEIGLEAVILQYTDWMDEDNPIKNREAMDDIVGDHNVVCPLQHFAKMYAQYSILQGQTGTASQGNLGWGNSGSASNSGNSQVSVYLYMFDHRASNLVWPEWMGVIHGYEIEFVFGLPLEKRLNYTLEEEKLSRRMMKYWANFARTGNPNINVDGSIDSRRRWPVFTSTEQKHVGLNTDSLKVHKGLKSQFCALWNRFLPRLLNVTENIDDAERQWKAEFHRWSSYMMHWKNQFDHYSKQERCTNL
T6 sequence (P81908 whole entry): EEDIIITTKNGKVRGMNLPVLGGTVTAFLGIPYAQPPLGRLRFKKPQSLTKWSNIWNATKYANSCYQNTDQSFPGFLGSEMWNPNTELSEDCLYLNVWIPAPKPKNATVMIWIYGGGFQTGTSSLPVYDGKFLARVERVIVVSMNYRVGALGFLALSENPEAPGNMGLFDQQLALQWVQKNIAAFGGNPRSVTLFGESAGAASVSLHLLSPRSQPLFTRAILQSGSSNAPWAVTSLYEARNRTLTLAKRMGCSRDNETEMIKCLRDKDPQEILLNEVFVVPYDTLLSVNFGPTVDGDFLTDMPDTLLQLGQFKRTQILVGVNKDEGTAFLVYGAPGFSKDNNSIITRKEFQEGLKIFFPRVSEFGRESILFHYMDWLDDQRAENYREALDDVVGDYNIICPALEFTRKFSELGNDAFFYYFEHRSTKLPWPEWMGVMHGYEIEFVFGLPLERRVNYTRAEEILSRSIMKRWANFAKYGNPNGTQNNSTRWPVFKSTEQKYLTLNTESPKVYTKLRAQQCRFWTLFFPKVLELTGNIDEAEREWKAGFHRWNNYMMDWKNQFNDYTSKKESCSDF
T2 sequence (P22303 whole entry): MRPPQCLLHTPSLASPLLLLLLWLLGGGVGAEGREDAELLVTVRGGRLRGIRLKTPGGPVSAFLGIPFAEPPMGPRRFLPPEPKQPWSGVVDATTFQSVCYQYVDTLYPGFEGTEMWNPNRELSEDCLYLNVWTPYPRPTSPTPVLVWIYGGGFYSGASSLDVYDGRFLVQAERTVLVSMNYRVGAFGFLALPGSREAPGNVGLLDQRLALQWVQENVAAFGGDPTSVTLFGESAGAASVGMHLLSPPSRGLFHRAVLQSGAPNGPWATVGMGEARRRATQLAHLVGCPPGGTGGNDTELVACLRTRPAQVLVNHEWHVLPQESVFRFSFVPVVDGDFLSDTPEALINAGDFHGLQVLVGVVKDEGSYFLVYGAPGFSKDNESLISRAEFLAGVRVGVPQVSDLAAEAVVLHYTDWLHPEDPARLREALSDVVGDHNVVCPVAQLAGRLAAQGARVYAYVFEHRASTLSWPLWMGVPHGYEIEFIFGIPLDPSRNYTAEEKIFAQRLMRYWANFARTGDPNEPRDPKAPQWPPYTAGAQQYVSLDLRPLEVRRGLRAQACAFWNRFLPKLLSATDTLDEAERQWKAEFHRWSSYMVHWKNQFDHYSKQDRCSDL
T3 sequence (P06276 whole entry, looked up): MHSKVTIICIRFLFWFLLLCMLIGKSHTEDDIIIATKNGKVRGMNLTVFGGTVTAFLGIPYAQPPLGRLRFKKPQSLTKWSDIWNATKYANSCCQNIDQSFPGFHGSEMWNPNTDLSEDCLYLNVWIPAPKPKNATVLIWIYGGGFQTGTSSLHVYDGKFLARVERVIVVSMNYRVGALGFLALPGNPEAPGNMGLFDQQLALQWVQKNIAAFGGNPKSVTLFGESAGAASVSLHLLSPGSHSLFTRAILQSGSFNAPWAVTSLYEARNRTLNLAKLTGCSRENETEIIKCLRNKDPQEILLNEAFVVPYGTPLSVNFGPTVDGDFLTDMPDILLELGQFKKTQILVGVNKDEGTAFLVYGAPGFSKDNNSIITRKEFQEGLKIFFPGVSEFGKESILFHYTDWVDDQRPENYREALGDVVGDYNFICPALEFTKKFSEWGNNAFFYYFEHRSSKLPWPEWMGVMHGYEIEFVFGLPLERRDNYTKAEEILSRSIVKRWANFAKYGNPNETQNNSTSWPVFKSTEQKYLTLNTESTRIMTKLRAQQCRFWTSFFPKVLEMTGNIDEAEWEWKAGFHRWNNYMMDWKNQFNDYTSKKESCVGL
T3 sequence (P22303 whole entry, looked up): as the sequence (P22303 whole entry) above
T1 sequence (P06276 whole entry): as the sequence (P06276 whole entry, looked up) above

Molecule `CNC(=O)Oc1cccc(CN(C)CCCCCCOc2ccc3c(c2)O/C(=C\c2cc(OC)c(OC)c(OC)c2)C3=O)c1` has a pIC50 [1] of 6.87, a pIC50 [2] of 9.28 and a Ratio IC50 [3] of 261.
With `CN1c2ccc(OC(=O)NCC3CCCCC3)cc2[C@]2(C)CCN(CCc3ccccc3)[C@H]12` the pIC50 [4] was 5.60 and the Ratio IC50 [5] was 1390.
`C#CCN[C@@H]1CCc2ccc(OC(=O)N(C)CC)cc21` gave a pIC50 [6] of 5.39, a pIC50 [7] of 6.11 and a pIC50 [8] of 5.70. It also gave a pIC50 [9] of 3.00.
In the case of `CCNC(=O)Oc1ccc2c(c1)[C@]1(C)CCO[C@@H]1O2`, the pIC50 [4] was 7.44, the pIC50 [10] was 8.22 and the Ratio IC50 [5] was 60.
In the case of `CNC(=O)Oc1cccc(CN(C)CCCCCCCOc2ccc3c(=O)c4ccccc4oc3c2)c1`, the pIC50 [11] was 9.49 and the pIC50 [12] was 7.29.
`CCCCCCNC(=O)OCn1nc(-c2ccccc2OC)ccc1=O` showed a pIC50 [13] of 4.46.
Molecule `CCC(C)(C)NCC(O)c1cc(O)cc(OC(=O)N(C)C)c1` (configuration not stated) has a pIC50 [14] of 4.70, a pIC50 [6] of 7.30 and a Ratio IC50 [15] of 400.
Work on `COC(=O)CCC/C=C\C/C=C\C/C=C\CCOC(=O)Nc1ccc(OC)cc1` yielded a pIC50 [16] of 4.61 and a pKi [17] of 5.46.
`CN[C@@H](CCOc1ccc([N+](=O)[O-])cc1)c1ccc(OC(=O)N(C)C)cc1` showed a pIC50 [18] of 7.00.
`CC(C)c1ccc(NC(=O)Oc2ccc3c(c2)[C@]2(C)CCN(CCc4ccccc4)[C@@H]2N3C)cc1` gave a pIC50 [4] of less than 4.52 and a Ratio IC50 [5] greater than 5000.
`CCCCCCCNC(=O)OCCN1CCN(CCCCCOc2ccc3ccc(=O)[nH]c3c2)CC1` showed a pIC50 [19] of 6.41 and a pIC50 [20] of 5.74.
Molecule `CC(C)c1ccc(NC(=O)Oc2ccc3c(c2)[C@]2(C)CCN[C@@H]2N3)cc1` has a Ratio IC50 [5] of 110.
`CNC(=O)Oc1cccc(CN(C)CCCCCCOc2ccc(C(=O)/C=C/c3cc(OC)c(OC)c(OC)c3)c(O)c2)c1` gave a pIC50 [1] of 7.52, a pIC50 [2] of 8.88 and a Ratio IC50 [3] of 23.
For `CCN1/C(=C/C(C)=O)Sc2ccc(OC(=O)OCCOCCNC(=O)c3cc4c(OC(=O)N(C)C)cccc4[n+](C)c3)cc21`, the pIC50 [14] was 7.09 and the pIC50 [6] was 6.32.
`COc1ccc2[nH]cc(CCC(=O)CCCCCCNC(=O)Oc3ccc4c(c3)CN3CCc5ccccc5C3N4C)c2c1` (configuration not stated) gave a pIC50 [10] of 6.99.
`CCN(C)C(=O)Oc1cc(OC(=O)N(C)CC)cc(C(O)CNC(C)(C)CC)c1` (configuration not stated) showed a Ratio IC50 [21] greater than 862.
For `CCCCCCCNC(=O)Oc1ccc2[nH]cc(CCNC(=O)c3ccccc3Nc3ccccc3)c2c1`, the pIC50 [19] was less than 4.00, the pIC50 [20] was 8.15 and the Ratio IC50 [21] was greater than 10000.
In the case of `CCC(C)(C)NCC(O)c1cc(OC(=O)N(C)C)cc(OC(=O)N(C)C)c1` (configuration not stated), the Ratio IC50 [21] was greater than 796.
`CN1CC[C@@]2(C)c3cc(OC(=O)Nc4ccccc4)ccc3N(C)[C@@H]12` gave a Ratio IC50 [5] of 65.
In the case of `C#CCNC1CCc2c(OC(=O)N(C)C)cccc21` (configuration not stated), the pIC50 [7] was 7.28, the pIC50 [8] was 6.59 and the pIC50 [9] was 4.07.
Molecule `CCCCCCCCNC(=O)Oc1cc(OC(=O)NCCCCCCCC)cc(OC(=O)NCCCCCCCC)c1` has a pIC50 [19] of 7.82.
`CN(CCCOc1ccc2c(=O)c3ccccc3oc2c1)Cc1cccc(OC(=O)NCCCCCCCCCN2CCOCC2)c1` showed a pIC50 [11] of 7.53 and a pIC50 [12] of 8.05.
With `CCCCCCCNC(=O)OCn1nc(-c2ccccc2OC)ccc1=O` the pIC50 [13] was 4.89.
In the case of `CN1CCN(C(=O)Oc2ccc(-c3coc4cc(OC(=O)N5CCN(C)CC5)ccc4c3=O)cc2)CC1`, the pIC50 [18] was 5.92.
In the case of `CCCCCCCNC(=O)Oc1ccc2c(c1)CN1CCc3ccc(/N=N\c4ccccc4)cc3C1N2C` (configuration not stated), the pIC50 [10] was 7.35.
